# Reference: patent US8921424B2, “Histone deacetylase inhibitors, process for preparation and uses thereof” (Zhejiang Hisun Pharmaceutical Co. Ltd., priority 2007, dated 2014)
# Columns and labels:
# MDAMB435 = assay: Cell-based proliferation assay (SRB), MDAMB435; conditions: Homo sapiens
# Description: (§1) Cell-Based Proliferation Assay for Determination of GI50 Values
# (§2) A rapid multiwell plate assay using Sulforhodamine B (SRB) protein stain was adopted to evaluate the growth inhibitory effects of the compounds of the present invention. The screening panel of cancer cell lines includes Colo205 and HCT116 colon cancer cells, MDA-MB231 and MDA-MB435 chest cancer cells, A549 lung cancer cells, and Chinese hamster ovary cell line CHO, which were obtained from ATCC.
# (§3) The cell line Colo205 is grown in RPMI 1640 medium containing 2 mM L-glutamine, 5% fetal bovine serum, and 1.0 mM sodium pyruvic acid. Cell lines A549 and MDA-MB231 are grown in RPMI 1640 medium containing 2 mM L-glutamine and 5% fetal bovine serum. The cell line MDA-MB435 is grown in DMEM medium containing 2 mM L-glutamine and 5% fetal bovine serum. The cell lines HCT 116 is grown in IMEM medium containing 2 mM L-glutamine and 5% fetal bovine serum. The CHO cell line, used as a normal control on toxicity, is grown in a special medium for cell line. For a typical screening experiment, A549 and Colo205 cells are inoculated into 96-well microtiter plates, with 100 μL per well, and 2000 and 5000 cells per well respectively for either cell line. MDA-MB435, HCT116, MDA-MB231 and CHO cells are also inoculated into 96-well microtiter plates, with 6000 cells per well. After cell inoculation, the microtiter plates are incubated at 37° C., 5% CO2, and 100% relative humidity for 24 hr in order to make cells adhere to well wall.
# (§4) After 24 h incubation or time zero for drug addition, with each cell line 50 μl of cold 50% (w/v) TCA is added to wells used for control to fix cells in situ. Also at time zero, cells in other wells are treated with 100 μl of compound of different concentrations for 24 hr, 48 hr, and 72 hr respectively, with varying final compound concentration (0.1 μM, 1 μM, 5 μM 10 μM). For each treatment duration at each compound concentration, there are triplicate wells, as well as an array of control wells including a blank control well (cell culture medium only, no cells), a no-compound control well (adding same volume of cell culture medium but no compound), a positive control well (treated with Suberoylanilide hydroxamic acid (SAHA)), and normal cell well control (CHO cells). Following the addition of compounds, cell plates are incubated for 24 h, 48 h or 72 h per treatment group at 37° C., 5% CO2, and 100% relative humidity. The Treatment is then terminated by addition of cold TCA and incubation of 1 hr at 4° C. The supernatant is discarded, and all wells are washed five times with de-ioned water and air dried. Then each well is added with 100 μl sulforhodamine B (SRB) solution (0.4% (w/v) made in 1% acetic acid) and cell plates are incubated for 20-30 minutes at room temperature. After staining, unbound dye is removed by washing five times with 1% acetic acid and the plates are air dried. Bound stain is subsequently solubilized with 10 mM (200 μL) Tris base with the help of 5 min platform vibration or pipetting up and down, and the absorbance is read on an automated plate reader (M5 detection system, MD Group Ltd.) at a wavelength of 565 nm (calibrated zero reading of blank control at wavelength of 690 nm). The analytical software, XL-fit has been used to generate GI50 from a series of data thus obtained.
# HL-60 = assay: Cell-based proliferation assay (SRB), HL-60; conditions: Homo sapiens
# Colo205 = assay: Cell-based proliferation assay (SRB), Colo205; conditions: Homo sapiens
# Description: as §1, §2, §3, §4
# HCT116 = assay: Cell-based proliferation assay (SRB), HCT116; conditions: Homo sapiens
# Description: as §1, §2, §3, §4
# SKOV-3 [1] = assay: Cell-based proliferation assay (SRB), SKOV-3; conditions: Homo sapiens
# Description: as §1, §2, §3, §4
# MDAMB231 = assay: Cell-based proliferation assay (SRB), MDAMB231; conditions: Homo sapiens, MDA-MB-231; Table 4
# Description: as §1, §2, §3, §4
# HCT-116 = assay: Xenograft model, HCT-116; assay type: in vivo, mouse; conditions: i.p.
# MDA-MB-435 = assay: Xenograft model, MDA-MB-435; assay type: in vivo, mouse; conditions: i.p., 15 days
# Source text: In Vivo Anti-Neoplastic (or Anti-Tumour) Effect of HDAC Inhibiting Agents
# The efficacy of the selected compounds of the invention can then be determined using in vivo animal (mouse) xenograft studies. The animal xenograft model is one of the most commonly used in vivo cancer models for studying the pharmaceutically effective dosage, administration route, frequency and interval.
# Athymic nude mice (Female, 5-6 week old, BALB/c, nu/nu, approximately 18-20 g body weight) are obtained from Vital River. The animals are kept on a 12 h light/dark cycle (0700-1900); food and water are provided ad libitum. All in vivo experiments are carried out in a specific pathogen-free facility (22° C.). The human cancer […] transplant model in athymic nude mice is constructed using xenograft cell lines colon cancer cell line colo205, breast cancer cell line MDA-MB435, and lung cancer cell line A549, all obtained from ATCC. Cultured cells are removed from culture plate wall by digestion, collected and suspended in cell culture medium containing no FBS, at a concentration of 5×10^6/0.2 ml, and brought to animal facility on ice. is 0.2 ml cell suspension is given to mice via rear left auxilliary subcutaneous scapular injection, using Size 6 needle. Animals are measured every 2-3 days on the size of tumor formation. After two weeks, those tumors that have been well grown without leak are removed from animals under sterile condition, split into several small fractions (2-3 mm in diameter), and injected s.c. into the rear left auxilliary subcutaneous scapular of animals. […] While the animas being treated, body weight of the animal and size of the tumor are measured every 3 days, with mortality also recorded. […] Tumors are removed, weighed, and measured. […] Tumor-inhibition rate, mortality, as well as relative tumor proliferationrate T/C (%) are calculated. […]
# Significant differences in tumor growth rate were determined by analysis of variance (Table 5).
# SKOV-3 [2] = assay: Xenograft model, SKOV-3; assay type: in vivo, mouse; conditions: i.p.
"GI50 (MDAMB435; MDA-MB-435, Table 3) [µM]","GI50 (HL-60; HL-60, Table 3) [µM]","GI50 (Colo205; COLO 205, Table 3) [µM]","GI50 (HCT116; HCT-116, Table 3) [µM]","GI50 (SKOV-3 [1]; SK-OV-3, Table 3) [µM]",GI50 (MDAMB231) [µM],"GI50 (MDAMB435; MDA-MB-435, Table 4) [µM]","GI50 (HL-60; HL-60, Table 4) [µM]","GI50 (Colo205; COLO 205, Table 4) [µM]","GI50 (SKOV-3 [1]; SK-OV-3, Table 4) [µM]","GI50 (HCT116; HCT-116, Table 4) [µM]",Compound,"T/C(%) HCT-116 (HCT-116; 80 mg/kg, 15 days)",T/C(%) MDA-MB-435 (MDA-MB-435; 80 mg/kg),"T/C(%) SKOV-3 (SKOV-3 [2]; 80 mg/kg, 20 days)","T/C(%) HCT-116 (HCT-116; 30 mg/kg, 14 days)",T/C(%) MDA-MB-435 (MDA-MB-435; 30 mg/kg),"T/C(%) SKOV-3 (SKOV-3 [2]; 30 mg/kg, 20 days)","T/C(%) HCT-116 (HCT-116; 300 mg/kg, 14 days)",T/C(%) MDA-MB-435 (MDA-MB-435; 200 mg/kg),"T/C(%) SKOV-3 (SKOV-3 [2]; 200 mg/kg, 21 days)"
2.65,0.645,2.41,1.35,5.25,2.35,2.65,0.645,2.41,5.25,,"CCCCc1nc2cc(/C=C/C(=O)NO)ccc2n1CCN(CC)CC [SB939, reference compound]",,,,"30% (30,14)","58% (30,15)",">60% (30,20)",,,
3.1,3.51,4.23,3.99,5.46,3.5,3.1,3.51,4.23,5.46,3.99,"CCCCCNc1cc(/C=C/C(=O)NO)ccc1SCCN(CC)CC [Example 2, 3-(4-(2-(diethylamino)ethylthio)-3-(pentylamino)phenyl)-N-hydroxy-acrylamide]",,,,,,,"31% (300,14)",">60% (200,15)","45% (200,21)"

Compound,"GI50 (MDAMB435; MDA-MB-435, Table 3) [µM]","GI50 (HL-60; HL-60, Table 3) [µM]","GI50 (Colo205; COLO 205, Table 3) [µM]","GI50 (HCT116; HCT-116, Table 3) [µM]","GI50 (SKOV-3 [1]; SK-OV-3, Table 3) [µM]",GI50 (MDAMB231) [µM],"GI50 (MDAMB435; MDA-MB-435, Table 4) [µM]","GI50 (HL-60; HL-60, Table 4) [µM]","GI50 (Colo205; COLO 205, Table 4) [µM]","GI50 (SKOV-3 [1]; SK-OV-3, Table 4) [µM]","GI50 (HCT116; HCT-116, Table 4) [µM]","T/C(%) HCT-116 (HCT-116; 80 mg/kg, 15 days)",T/C(%) MDA-MB-435 (MDA-MB-435; 80 mg/kg),"T/C(%) SKOV-3 (SKOV-3 [2]; 80 mg/kg, 20 days)","T/C(%) HCT-116 (HCT-116; 30 mg/kg, 14 days)",T/C(%) MDA-MB-435 (MDA-MB-435; 30 mg/kg),"T/C(%) SKOV-3 (SKOV-3 [2]; 30 mg/kg, 20 days)","T/C(%) HCT-116 (HCT-116; 300 mg/kg, 14 days)",T/C(%) MDA-MB-435 (MDA-MB-435; 200 mg/kg),"T/C(%) SKOV-3 (SKOV-3 [2]; 200 mg/kg, 21 days)"
"O=C(CCCCCCC(=O)Nc1ccccc1)NO [SAHA, suberoylanilide hydroxamic acid, reference compound]",4.1,2,3.15,1.52,3.56,5.1,,,,,,">60% (80,15)",">60% (80,15)",">60% (80,20)",,,,,,
